Test results reported in patent EP4741391A1, “NMT INHIBITOR, AND PREPARATION METHOD THEREFOR AND USE THEREOF” (Nanjing Synnocare Pharmaceutical Technology Co., Ltd., priority 2023, dated 2025).

Columns and labels:
[1] = target: T1, NMT1 enzyme (Homo sapiens, UniProt P30419); assay: Inhibitory activity on NMT1 enzyme catalysis (fluorescence intensity, CPM probe); format: biochemical; conditions: 6 nM NMT1 enzyme, 1.25 µM myristoyl-CoA, 20 µM HSPP60 SRC peptide, 45 minutes at 25 °C
T1 sequence (P30419 1-496): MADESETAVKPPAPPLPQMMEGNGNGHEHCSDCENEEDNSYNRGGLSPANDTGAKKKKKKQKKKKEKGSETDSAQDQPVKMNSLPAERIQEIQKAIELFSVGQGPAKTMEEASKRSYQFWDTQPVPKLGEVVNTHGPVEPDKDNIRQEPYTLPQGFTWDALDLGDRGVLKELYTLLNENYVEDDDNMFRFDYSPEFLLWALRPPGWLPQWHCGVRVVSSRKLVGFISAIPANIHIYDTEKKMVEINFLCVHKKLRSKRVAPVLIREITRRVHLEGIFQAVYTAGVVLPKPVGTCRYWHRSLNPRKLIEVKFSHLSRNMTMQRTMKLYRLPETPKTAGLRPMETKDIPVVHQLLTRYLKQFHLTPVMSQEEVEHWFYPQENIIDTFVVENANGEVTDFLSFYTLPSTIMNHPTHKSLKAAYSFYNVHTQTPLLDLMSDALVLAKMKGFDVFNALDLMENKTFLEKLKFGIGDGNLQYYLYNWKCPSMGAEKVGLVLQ
Method: This study evaluated the ability of the compounds of the invention to inhibit NMT1 catalytic activity in vitro. The experiment used a FI (Fluorescence Intensity) analysis method, characterizing NMT1 inhibitors under conditions of 1.25 µM myristoyl-CoA (Lithium salt, Sigma, M4414). In this experiment, a synthesized peptide with the sequence H-Gly-Ser-Asn-Lys-Ser-Lys-Pro-Lys-NH2, HSPP60SRC (Nanjing Peptide Industry, NJP23953), was used as the reaction substrate. The final concentration of the NMT1 enzyme was 6 nM, the final concentration of CPM (Reactive thiol fluorescence probe, Invitrogen, D346) was 1 µM, the final concentration of HSPP60 SRC was 20 µM, and the final concentration of DMSO was 0.5%.
Compounds were dissolved in DMSO to obtain 10 mM stock solutions. Dose-response solutions were prepared with a top endpoint compound concentration of 3 mM, followed by three-fold serial dilutions in DMSO, totaling ten data points. Using an ECHO acoustic liquid handler (BECKMAN, ECHO 655 system), 0.05 µL of the diluted compound solutions was transferred to a 384-well assay plate (Corning, CLS4514). Then, 2.5 µL of the NMT1 enzyme working solution was added to the 384-well assay plate, followed by incubation at 25 °C for 10 minutes. Subsequently, 5 µL of the CPM and myristoyl-CoA working solution was added, the plate was centrifuged at 1000 rpm for 1 minute, and then 2.5 µL of the HSPP60 SRC working solution was added to initiate the reaction. The reaction was incubated at 25 °C for 45 minutes. The FI signal ([…]; ex: 405 nm) was detected using an HTS high-throughput screening multifunctional microplate reader (BMG, PHERA star FSX).
The inhibition rate of the compounds on NMT1 enzyme catalytic activity was calculated using the following formula: Inhibition Percentage (%) = 100 * (Mean of DMSO group - Mean of Compound group) / (Mean of DMSO group - Mean of Blank control group). The IC50 curve of the compounds was fitted using the software XLfit 5.5.0 according to the nonlinear regression equation. Table 1 provides the inhibitory activity of the compounds of the invention on NMT1 enzyme catalysis.

[2] = test system: MV-4-11 cells; assay: Anti-proliferative activity against MV-4-11 cells (three-day cell viability chemiluminescence); format: cell-based; conditions: MV-4-11 human monocytic leukemia cells, three days of exposure
Method: This study utilized a cell proliferation assay to analyze the cytotoxicity of MV-4-11 human monocytic leukemia cells after three days of exposure to NMT1 inhibitors. The MV-4-11 cell line was purchased from Nanjing Cobuilder Biotechnology Co., Ltd., and cultured in IMDM medium (Viva cell) in an incubator (Thermo) at 37 °C with 5% CO2. In this experiment, NMT1 inhibitors were dissolved in DMSO to obtain 600 µM stock solutions. Dose-response solutions were prepared with a top endpoint compound concentration of 3 µM, followed by three-fold serial dilutions in DMSO, totaling eight data points. The final concentration of DMSO was 0.5%.
MV-4-11 cells were seeded into a white 96-well plate, 80 µL of cell suspension per well, containing 6000 MV-4-11 cells. The cell plate was placed in the CO2 incubator for overnight culture. Then, 20 µL of NMT1 inhibitor solutions at different concentrations were added to the wells. The 96-well plate was placed back into the incubator for three days. Another cell plate was prepared, and the signal was read on the day of drug addition to serve as the maximum value (Max value in the equation below) for data analysis. To this cell plate, 25 µL of cell viability chemiluminescence detection reagent was added per well, followed by incubation at room temperature for 10 minutes to stabilize the luminescence signal. A multi-label analyzer was used for reading.
The raw data were converted into inhibition rates using the equation (Sample - Min) / (Max - Min) * 100%. The IC50 values were then determined by fitting a four-parameter curve (using the "log(inhibitor) vs. response - Variable slope" model in GraphPad Prism). Min: wells treated with 0.5% DMSO; Max: Day 0 wells. Table 1 provides the inhibitory activity of the compounds of the invention on MV-4-11 cell proliferation. Table 1: Compound Inhibitory Activity against NMT1 Enzyme (IC50) and Anti-proliferative Activity against MV-4-11 Cells (IC50)

| SMILES | IC50 [1] | IC50 ([2]; Homo sapiens, MV4-11, 72 h) | IC50 [2] |
| --- | --- | --- | --- |
| CNCc1cnn2ccc(-c3ccc(F)c(F)c3OCCc3c(C(C)C)nn(C)c3C)cc12 [Compound 25, 5-[2-({2-[1,5-dimethyl-3-(prop-2-yl)pyrazol-4-yl]ethyl}oxy)-3,4-difluorophenyl]-3-[(methylamino)methyl]pyrazo lo[1,5-a]pyridine] | 3.26 nM | 25.8 nM | – |
| CNCc1cnn2ccc(-c3ccc(F)c(F)c3OCCc3c(CC#N)nn(C)c3C)cc12 [Compound 28, (4-{2-[(2,3-difluoro-6-{3-[(methylam ino)methyl]pyrazolo[1,5-a]pyridin-5-yl}phenyl)oxy]ethyl}-1,5-dimethylpyrazol-3-yl)acetonitrile] | 1.95 nM | 10.7 nM | – |
| CNCc1cnn2ccc(-c3ccc(F)cc3OCCc3c(C(C)(C)O)nn(C)c3C)cc12 [Compound 33, 2-(4-{2-[(5-fluoro-2-{3-[(methylamino)methyl]pyrazolo[1,5-a]pyridin-5-yl}phenyl)oxy]ethyl}-1,5-dimethylpyrazol-3-yl)propan-2-ol] | 2.13 nM | 5.49 nM | – |

Now from value to molecule:

| IC50 [1] | IC50 ([2]; Homo sapiens, MV4-11, 72 h) | IC50 [2] | SMILES |
| --- | --- | --- | --- |
| 2.81 nM | 24.9 nM | – | CCc1nn(C)c(C)c1CCOc1c(-c2ccn3ncc(CNC)c3c2)ccc(F)c1F [Compound 24, 5-(2-{[2-(3-ethyl-1,5-dimethylpyrazol-4-yl)ethyl]oxy}-3,4-difluorophenyl)-3-[(methylamino)methyl]pyrazolo[1,5-a]pyridine] |
| 2.48 nM | 12.3 nM | – | CNCc1cnn2ccc(-c3ccc(F)c(F)c3OCCc3c(CF)nn(C)c3C)cc12 [Compound 26, 5-[3,4-difluoro-2-({2-[3-(fluoromethyl)-1,5-dimethylpyrazol-4-yl]ethyl}oxy)phenyl]-3-[(methylamino)methyl]p yrazolo[1,5-a]pyridine] |
| 1.82 nM | < 10 nM | 5.56 nM | CNCc1cnn2ccc(-c3ccc(F)c(F)c3OCCc3c(C#N)nn(C)c3C)cc12 [Compound 27, 4-{2-[(2,3-difluoro-6-{3-[(methylamino)methyl]pyrazolo[1,5-a]pyridin-5-yl}phenyl)oxy]ethyl}-1,5-dimethylpyr azole-3-carbonitrile] |
| 2.05 nM | 5.04 nM | – | CNCc1cnn2ccc(-c3ccc(F)cc3OCCc3c(C(C)O)nn(C)c3C)cc12 (stereo not drawn) [Compound 35, 1-(4-{2-[(5-fluoro-2-{3-[(methylamino)methyl]pyrazolo[1,5-a]pyridin-5-yl}phenyl)oxy]ethyl}-1,5-dimethylpyrazol-3-yl)ethan-1-ol] |
